# Source: article PMC3529809 (Steroids, 2012)
# Several values for one entry are separate records, joined by “and”; a condition that tells them apart may be missing. Identical values can stand only once. Entries after “also recorded” stand apart in the source; their conditions may differ.
# Assays:
# [1] = target: T1, human ERβ (Homo sapiens, UniProt Q92731); assay: ERELUC transient transfection reporter assay, ERβ in HepG2 cells; assay type: cell-based; settings: for effect on ERβ-mediated induction of ERELUC by E2, DHEA, 7-oxo-DHEA, ADIOL and ADIONE: 1 µM ICI, 100 nM 4-OHT, 1 µM R,R-THC, 5 µM sterol, Fig. 3B; for ERELUC activity in ERβ-expressing HepG2 cells: 5 µM, 24 h, Fig. 1B, result in words
# [2] = target: T2, hERα (Homo sapiens, UniProt P03372); assay: ERELUC transient transfection reporter assay, ERα in HEK-293 cells; assay type: cell-based; settings: for ERα agonist activity in ERELUC assay: result in words
# [3] = system: MCF-7 human breast cancer cells; assay: Cell proliferation BrdU assay; assay type: cell-based; settings: for MCF-7 cell proliferation: 48 h BrdU, 10 nM E2, 5 µM sterols, Fig. 7
# [4] = system: MCF-7 cells; settings: cited from earlier work; for MCF-7 cell proliferation: less than E2; for proliferation of MCF-7 cells: 1–10 µM concentrations
# [5] = system: TFF1 (pS2), PGR (PR), CTSD (cathepsin D) transcription; assay: QRT-PCR of endogenous ER-target genes in ERα-transfected HEK-293 cells; assay type: cell-based, human; settings: 10 nM E2 or 5 µM sterol, 24 h, Fig. 5A
# [6] = target: T2, hERα; assay: [3H] E2 ligand binding competition; settings: for ERα binding / competition with E2: result in words
# [7] = system: ERβ; settings: 50 µM, COS cells; cited from earlier work
# [8] = system: NRF1 (NRF-1) expression; assay: QRT-PCR of NRF1 in ERβ-transfected HepG2 cells; assay type: cell-based, human; settings: 10 nM E2 or 5 µM sterol, 24 h, Fig. 5B
# [9] = system: ERα; settings: 50 µM, COS cells; cited from earlier work
# [10] = target: T1, human ERβ; assay: [3H] E2 ligand binding competition; settings: IC50 for ERβ, competition with 30 nM [3H] E2, Fig. 6B
# [11] = target: T2, hERα; assay type: cell-based; settings: Supplemental Fig. 1
# [12] = system: ERα; settings: 0.1 µM, HEK-293; cited from earlier work
# [13] = system: ERβ; settings: 0.1 µM, HEK-293; cited from earlier work
# [14] = MEK1/2 inhibitor, data not shown
# T1 sequence (Q92731 whole entry): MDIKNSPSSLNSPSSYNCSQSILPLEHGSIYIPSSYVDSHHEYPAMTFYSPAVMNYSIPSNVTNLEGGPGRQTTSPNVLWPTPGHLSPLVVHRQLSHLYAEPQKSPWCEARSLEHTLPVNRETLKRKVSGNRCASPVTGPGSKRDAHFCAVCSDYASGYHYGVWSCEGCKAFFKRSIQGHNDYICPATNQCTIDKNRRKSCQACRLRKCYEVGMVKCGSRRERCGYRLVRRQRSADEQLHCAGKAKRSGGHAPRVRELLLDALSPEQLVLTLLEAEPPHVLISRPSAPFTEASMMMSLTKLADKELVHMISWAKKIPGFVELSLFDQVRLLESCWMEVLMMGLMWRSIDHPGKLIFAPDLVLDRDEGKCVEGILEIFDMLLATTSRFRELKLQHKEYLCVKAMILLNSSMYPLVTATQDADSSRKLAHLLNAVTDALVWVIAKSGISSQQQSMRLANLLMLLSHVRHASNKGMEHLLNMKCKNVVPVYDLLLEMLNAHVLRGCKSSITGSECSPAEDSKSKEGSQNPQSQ
# T2 sequence (P03372 whole entry): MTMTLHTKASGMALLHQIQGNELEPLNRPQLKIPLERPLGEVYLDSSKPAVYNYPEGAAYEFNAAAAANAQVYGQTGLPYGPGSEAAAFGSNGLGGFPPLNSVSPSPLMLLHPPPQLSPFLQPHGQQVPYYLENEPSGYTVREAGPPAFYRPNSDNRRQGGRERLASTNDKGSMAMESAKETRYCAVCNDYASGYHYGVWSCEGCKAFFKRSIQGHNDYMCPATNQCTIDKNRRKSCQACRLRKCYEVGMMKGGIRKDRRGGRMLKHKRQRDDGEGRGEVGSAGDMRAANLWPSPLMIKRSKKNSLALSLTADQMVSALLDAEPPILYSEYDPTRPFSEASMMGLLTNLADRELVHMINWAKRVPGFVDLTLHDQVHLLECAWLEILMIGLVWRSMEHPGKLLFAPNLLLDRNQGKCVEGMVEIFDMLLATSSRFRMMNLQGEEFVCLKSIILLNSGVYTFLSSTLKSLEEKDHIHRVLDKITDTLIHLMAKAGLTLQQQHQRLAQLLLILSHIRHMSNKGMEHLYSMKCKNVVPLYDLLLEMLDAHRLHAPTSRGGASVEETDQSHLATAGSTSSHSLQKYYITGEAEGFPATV
smiles,measurement,setting,value
"C[C@]12CC[C@@H]3c4ccc(O)cc4C[C@@H](CCCCCCCCC[S+]([O-])CCCC(F)(F)C(F)(F)F)[C@H]3[C@@H]1CC[C@@H]2O (stereo partly drawn) [ICI 182,780, reference compound]","effect on ERβ-mediated induction of ERELUC by E2, DHEA, 7-oxo-DHEA, ADIOL and ADIONE",[1],inhibited
same,"effect on ERα-mediated induction of ERELUC by E2, DHEA, DHEA-S and ADIOL","[2]; 1 µM ICI, 100 nM 4-OHT, 1 µM R,R-THC, 5 µM sterol, Fig. 3A",inhibited
same,effect on E2-induced stimulation of MCF-7 cell proliferation,"[3]; 100 nM ICI 182,780, pretreatment 6 h",inhibited
same,effect on the proliferative activity of 10 nM DHEA in MCF-7 cells,[4],lack of inhibition
"CC(O)(CS(=O)(=O)c1ccc(F)cc1)C(=O)Nc1ccc(C#N)c(C(F)(F)F)c1 (stereo not drawn) [Bicalutamide, reference compound]","effect on DHEA-, 7-oxo-DHEA-, ADIOL- and ADIONE-induced proliferation","[3]; 10 µM bicalutamide, pretreatment 4 h, also blocked DHT-induced proliferation",inhibited
"C[C@]12CC[C@H](OS(=O)(=O)O)CC1=CC[C@@H]1[C@@H]2CC[C@]2(C)C(=O)CC[C@@H]12 [DHEA-S, DHEA 3β-sulfate]",induction of ERELUC activity via ERα,"[2]; 5 µM, 24 h, HEK-293, Fig. 1B",around 9 fold
same,induction of ERELUC expression with ERα,"[2]; concentration-response, at higher concentrations, HEK-293, Fig. 2A",~ 2 fold
same,CTSD (cathepsin D) expression,[5],increased
same,PGR (PR) expression,[5],increased
same,TFF1 (pS2) expression,[5],increased
same,IC50,"[6]; read-out: IC50 for ERα, competition with 30 nM [3H] E2, Fig. 6A",100 to 500 µM
same,MCF-7 cell proliferation,[3],increased
same,MCF-7 cell proliferation,[4],increased cell proliferation
"C[C@]12CC[C@H](O)CC1=C[C@@H](O)[C@@H]1[C@@H]2CC[C@]2(C)C(=O)CC[C@@H]12 [7α-OH-DHEA, 7α-hydroxy-DHEA]",ERELUC activity in ERβ-expressing HepG2 cells,[1],increased
same,ERα agonist activity in ERELUC assay,[2]; HEK-293,lack of ERα activity
same,CTSD (cathepsin D) expression,[5],no induction
same,PGR (PR) expression,[5],no induction
same,TFF1 (pS2) expression,[5],no induction
same,"ERE-TK-luciferase reporter activity, ERβ",[7],stimulated activity
same,NRF-1 mRNA expression,[8],low induction
same,NRF-1 mRNA expression,[8]; listed as α-OH-DHEA,statistically significant increase
same,"ERE-TK-luciferase reporter activity, ERα",[9],stimulated activity
"C[C@]12CC[C@H](O)CC1=CC(=O)[C@@H]1[C@@H]2CC[C@]2(C)C(=O)CC[C@@H]12 [7-oxo-DHEA, 3β-hydroxyandrost-5-ene-7,17-dione]",ERELUC activity in ERβ-expressing HepG2 cells,[1],significantly induced
same,ERα agonist activity in ERELUC assay,[2]; HEK-293,lack of ERα-induced ERE-luciferase activity
same,CTSD (cathepsin D) expression,[5],no activation
same,PGR (PR) expression,[5],no activation
same,TFF1 (pS2) expression,[5],increased
same,ERα binding / competition with E2,[6],did not exhibit significant ERα binding
same,MCF-7 cell proliferation,[3],increased
same,NRF-1 mRNA expression,[8],low induction
same,IC50,[10],500 µM
"C=C1C[C@@H]2[C@H](CC[C@]3(C)C(=O)CC[C@@H]23)[C@@]2(C)C=CC(=O)C=C12 [exemestane, reference compound]",effect on ADIONE activation of ERβ,"[1]; 100 nM exemestane, HepG2, Fig. 4B",no effect
same,inhibition at 0.1 µM,"[1]; HepG2, read-out: inhibition of DHEA-, ADIOL- and 7-oxo-DHEA-induced ERELUC reporter activity",20 to 30%
same,"effect on E2, DHEA or ADIOL induced ERELUC activity in ERα-transfected cells","[2]; 100 nM exemestane, HEK-293, Fig. 4A",did not significantly inhibit
same,effect on proliferation with ADIOL or ADIONE,"[3]; 100 nM exemestane, 5 µM sterol, 48 h",no inhibitory activity
"C[C@]12CC[C@H](O)C[C@@H]1C[C@@H](O)[C@@H]1[C@@H]2CC[C@]2(C)C(=O)CC[C@@H]12 [7α-OH-EpiA, 7α-hydroxy-epiandrosterone]",MCF-7 proliferation,[4]; 1–100 nM,inhibited
"C[C@]12CCC(=O)C=C1CC[C@@H]1[C@@H]2CC[C@]2(C)C(=O)CC[C@@H]12 [androst-4-ene-3,17-dione]",ERELUC activity in ERβ-expressing HepG2 cells,[1],effective in activating
"CC[C@@H]1Cc2cc(O)ccc2C2=C1c1ccc(O)cc1C[C@H]2CC (relative stereo) [R,R-THC, R,R-cis-diethyl tetrahydrochrysene, reference compound]","effect on ERβ-mediated induction of ERELUC by E2, DHEA, 7-oxo-DHEA, ADIOL and ADIONE",[1],significantly inhibited
"Clc1ccc(COC(Cn2ccnc2)c2ccc(Cl)cc2Cl)c(Cl)c1 (stereo not drawn) [miconazole, reference compound]","effect on ERβ activation of ERELUC in response to E2, ADIOL, DHEA, ADIONE and 7-oxo-DHEA","[1]; 5 µM miconazole, HepG2, Fig. 4B",reduced
same,effect on DHEA-stimulated ERα transcriptional activity,"[2]; 5 µM miconazole, HEK-293",did not inhibit
same,effect on ERα activation of ERELUC in response to E2 and ADIOL,"[2]; 5 µM miconazole, HEK-293, Fig. 4A",reduced
same,inhibition of [3H] E2 binding to recombinant human ERα,"[6]; 100 µM competitor, Supplemental Fig. 2",15%
same,ERα binding / competition with E2,[6],did not compete
same,effect on E2-induced ERα-ERE-LUC activity,"[11]; 10 nM E2, miconazole pretreatment",inhibited
same,increase of basal ERE-luciferase reporter activity,[11]; miconazole pretreatment,~ 0.8 fold
same,"effect on MCF-7 cell proliferation induced by E2, DHEA, ADIOL and ADIONE","[3]; 5 µM miconazole, 48 h",inhibited
"C[C@]12CC[C@@H]3c4ccc(O)cc4CC[C@H]3[C@@H]1CC[C@@H]2O [E2, 17β-estradiol, reference compound]",CTSD (cathepsin D) expression,[5],increased
same,PGR (PR) expression,[5],increased
same,TFF1 (pS2) expression,[5],increased
same,NRF-1 mRNA expression,[8],statistically significant increase; also recorded: low induction
"C[C@]12CC[C@H](O)CC1=C[C@H](O)[C@@H]1[C@@H]2CC[C@]2(C)C(=O)CC[C@@H]12 [7β-OH-DHEA, 7β-hydroxy-DHEA]",ERELUC activity in ERβ-expressing HepG2 cells,[1],suppressed
"COc1cccc(-c2cc(=O)c3ccccc3o2)c1N [PD998059, reference compound]","effect on DHEA or metabolite-induced ERELUC activity, ERβ",[1]; [14],did not block
same,"effect on DHEA or metabolite-induced ERELUC activity, ERα",[2]; [14],did not block
"C[C@]12CC[C@H](O)CC1=CC[C@@H]1[C@@H]2CC[C@]2(C)C(=O)[C@H](O)C[C@@H]12 [16α-OH-DHEA, 16α-hydroxy-DHEA]",ERELUC activity in ERβ-expressing HepG2 cells,[1],increased
same,ERα agonist activity in ERELUC assay,[2]; HEK-293,lack of ERα-induced ERE-luciferase activity
same,CTSD (cathepsin D) expression,[5],no activation
same,PGR (PR) expression,[5],no activation
same,TFF1 (pS2) expression,[5],increased
same,NRF-1 mRNA expression,[8],statistically significant increase; also recorded: low induction
"C[C@]12CCC(=O)CC1=CC[C@@H]1[C@@H]2CC[C@]2(C)C(=O)CC[C@@H]12 [ADIONE, androst-5-ene-3,17-dione]",ERELUC activity in ERβ-expressing HepG2 cells,[1],significantly induced
same,ERELUC activity in ERβ-expressing HepG2 cells,"[1]; listed as androst-5-ene-3,17-dione",effective in activating
same,MCF-7 cell proliferation,[3],increased
same,NRF-1 mRNA expression,[8],did not increase
same,IC50,[10],50 µM and ~50 µM
"C[C@]12CC[C@H](O)CC1=CC[C@@H]1[C@@H]2[C@@H](O)C[C@]2(C)C(=O)CC[C@@H]12 [11β-OH-DHEA, 11β-hydroxy-DHEA]",ERELUC activity in ERβ-expressing HepG2 cells,[1],suppressed
C[C@]12CC[C@H]3[C@@H](CCC4=CC(=O)CC[C@@]43C)[C@@H]1CC[C@@H]2O [testosterone],proliferation of MCF-7 cells,[4],stimulated proliferation
"C[C@]12CCC(=O)C[C@@H]1CC[C@@H]1[C@@H]2CC[C@]2(C)[C@@H](O)CC[C@@H]12 [DHT, dihydrotestosterone, reference compound]",MCF-7 cell proliferation,[3],concentration-dependent increase
same,proliferation of MCF-7 cells,[4],stimulated proliferation
"C[C@]12CC[C@H](O)C[C@@H]1CC[C@@H]1[C@@H]2CC[C@]2(C)[C@@H](O)CC[C@@H]12 [3β-Adiol, 5α-androstane-3β,17β-adiol]","ERE-luciferase activity, ERα",[12],activated
same,"ERE-luciferase activity, ERβ",[13],activated
same,NRF-1 mRNA expression,[8],increased; also recorded: low induction
same,proliferation of MCF-7 cells,[4],stimulated proliferation
"C[C@]12CC[C@H]3[C@@H](CC=C4C[C@@H](O)CC[C@@]43C)[C@@H]1CC[C@@H]2O [ADIOL, androst-5-ene-3β,17β-diol]",ERELUC activity in ERβ-expressing HepG2 cells,[1],significantly induced
same,TFF1 (pS2) expression,[5],increased
same,"ERE-luciferase activity, ERα",[12],activated
same,"ERE-luciferase activity, ERβ",[13],activated
same,MCF-7 cell proliferation,[3],increased
same,NRF-1 mRNA expression,[8],statistically significant increase
same,proliferation of MCF-7 cells,[4],stimulated proliferation
same,MCF-7 cell growth,"[4]; DHEA 0.5 µM, ADIOL 2 nM",stimulated
same,MCF-7 cell proliferation,[4],increased cell proliferation
"CC/C(=C(\c1ccc(O)cc1)c1ccc(OCCN(C)C)cc1)c1ccccc1 [4-OHT, 4-hydroxytamoxifen, reference compound]","effect on ERβ-mediated induction of ERELUC by E2, DHEA, 7-oxo-DHEA, ADIOL and ADIONE",[1],inhibited
"C[C@]12CC[C@H](O)C[C@@H]1C[C@H](O)[C@@H]1[C@@H]2CC[C@]2(C)C(=O)CC[C@@H]12 [7β-OH-EpiA, 7β-Hydroxy-epiandrosterone]",E2-induced proliferation of MCF-7 cells,"[4]; 1–100 nM, no dose-response detected",inhibited
same,"cell proliferation, compound alone",[4]; 1–100 nM,did not affect
